Source: patent publication US20250152577A1, “Pharmaceutical Composition of Ethidium Bromide and Use in Treating Cancer” (RUIJIN HOSPITAL, SHANGHAI JIAOTONG UNIVERSITY SCHOOL OF …, priority 2022, published 2025)

Key:
[1] = test system: colorectal cancer cells RKO; test: Mitochondrial function by Seahorse; format: cell-based, human; details: Seahorse after 6 hours; concentration-dependent
Experimental: To further verify the effect of ethidium bromide on mitochondrial function, various cell lines were treated with ethidium bromide and mitochondrial function was tested by using Seahorse after 6 hours.

Sk-Hep1 Liver cancer = test: Median lethal dosage (IC50) against tumor cell lines; format: cell-based; details: Homo sapiens; Sk-Hep1 liver cancer tumor cells
N2A Neuroglioma = test: as above; format: cell-based; details: N2A neuroglioma tumor cells
MEF = test: Median lethal dosage (IC50) against normal cell lines; format: cell-based; details: Mus musculus; MEF normal cells

CC[n+]1c(-c2ccccc2)c2cc(N)ccc2c2ccc(N)cc21 [ethidium bromide, Ethidium bromide]
oxygen consumption, glycolysis level, glycolysis rate [1]: significantly reduced
IC50 (Sk-Hep1 Liver cancer): 1.26 µM
IC50 (N2A Neuroglioma): 15.7 µM
IC50 (MEF): 38.5 µM
